A short description of series [1]: Equilibrium solubility of elacridar in microemulsion components. The following applies: 37 °C, oil or lipid, thermodynamic from solid. It is filed as physicochemical.
For series [2] the following is noted: mouse, cited from earlier work.
For series [3] the following is noted: FVB, mouse, brain, oral, 20 mg/kg.

Converted amounts (≈) assume the structure as drawn. Where two headings read alike, the source gives them in different places.

For `COc1cc2c(cc1OC)CN(CCc1ccc(NC(=O)c3cccc4c(=O)c5cccc(OC)c5[nH]c34)cc1)CC2` [elacridar, N-(4-(2-(1,2,3,4-tetrahydro-6,7-dimethoxy-2-isoquinolinyl)ethyl)phenyl)-9,10-dihydro-5-methoxy-9-oxo-4-acridine carboxamide], the solubility at 24 h in series [1] (Captex 300 (oil)) and in series [1] (Captex 355 (oil)) was 300 ± 1 µg/mL (≈ 532 µM) in each case. Moreover, the bioavailability in series [2] (intraperitoneal dose, suspension) is on record as about 1%; in series [2] (oral dose, suspension at 100 mg/kg) it was “about 22%”.
`C#Cc1cccc(Nc2ncnc3cc(OCCOC)c(OCCOC)cc23)c1` [erlotinib] showed a concentration at 1 h in series [3] of 76.4 ± 7.8 ng/mL.

In general, solubility refers to the concentration that dissolves in the medium under given conditions. As usually defined, the bioavailability is dose-corrected exposure relative to a reference, in per cent.

The values are drawn from article PMC3967790 (Journal of pharmaceutical sciences, 2013).
